# Patent US20070275936A1, “Formulations and Treatment Methods” (priority 1998, published 2007)
# Where two headings read alike, the source gives them in different places.
# What was measured:
# Plasmodium berghei = assay: Lewis rat in vivo parasitemia study; conditions: Lewis rats
# [1] = Pharmacokinetics of BrEA after subcutaneous dose in rats; assay type: in vivo; conditions: for half-life: rat, plasma, sc, biphasic elimination
# Protocol: BrEA was administered subcutaneously to rats using the formulation of example 1. Approximately 90% of the drug left the injection site within 24 hours of administration, and reached a maximum concentration in the plasma of about 0.2% of the injected dose at one hour post administration. Elimination from the plasma was biphasic, with half-lives of about 12 and 72 hours respectively. […] A study is also performed in Rhesus Monkeys with the example 1 formulation to determine plasma pharmacokinetics.
# P. berghei = assay: Survival of P. berghei infected mice given BrEA I.V. or S.C.; assay type: in vivo; conditions: cyclodextrin formulation, all control animals dead by day 10
# Protocol: In a similar protocol, mice are inoculated with a solution containing 1×10^7 erythrocytes/mL by I.V. injection. Two hours later give drug is delivered by I.V. injection. BrEA or another formula 1 compound is given (0.2 mL I.V. or S.C.) once a day for 4 days. Tail snips are used to obtain blood after the study. Mice infected with P. berghei were used to obtain infected cells. Parasites are harvested from cardiac mouse blood, and uninfected mice are infected using 0.2 ml of blood with 14% parasitaemia per mouse I.V. Two hours later, the first dose of BrEA (100 mg/kg I.V. or S.C.) is delivered to the infected animals. The BrEA formulation was a sterile solution containing 15 mg/mL of BrEA in 45% hydroxypropyl-β-cyclodextrin and 0.9% saline. At 1, 2, 3 and 4 days after the infection of the animals, BrEA (100 mg/kg I.V. or S.C.) is delivered to the infected animals.
# Sprague Dawley rats = assay: TNBS induced distal colitis in rats; assay type: in vivo; conditions: day 14
# Protocol: In another protocol formula 1 compounds were used in a similar animal model. Groups of 10 male Sprague Dawley rats (250-300 grams) were fasted for 24 hours before 2,4,6-trinitrobenzene sulfonic acid (TNBS) or saline challenge. This model presents a severe challenge to the animal's immune system. On Day 0, the rats were lightly anesthetized and a catheter inserted rectally into the colon such that the tip was 8 cm proximal to the anus. Distal colitis was induced by intra-colonic instillation of 0.5 mL of an ethanolic solution of TNBS (60 mg/mL ethanol 50% in water). The test substance, 7-oxodehydroepiandrosterone 20 mg/mL in vehicle or vehicle control was administered by subcutaneous injection (0.1 mL/injection) once a day for 6 days, the first dose being given 30 minutes after TNBS challenge. Sulfasalazine (30 mg/mL in 2% Tween 80 in distilled water) or vehicle control was administered orally (PO) once a day (10 mL/kg/day) for 7 days, the first two doses beginning 24 hours and 2 hours before […] challenge. Signs of diarrhea were recorded daily by examining the anal area. Animals were fasted for 24 hours prior to sacrifice on day 14 and the colon was removed and weighed. After gross observations of colonic tissues, 3 samples were taken from regions approximately 1, 3, and 8 cm proximal to the anus. If gross ulcers or inflammation were present, at least one sample was taken from the affected region. Before removal of the colon, signs of adhesion between the colon and other organs were recorded. […] Body weight, colon-to-body-weight ratio, and damage scores were assessed. Visible damage was scored on a 1-5 scale as follows: 0=No damage; 1=Localized hyperemia but no ulcers; 2=linear ulcers with no significant inflammation; 3=Linear ulcers with inflammation at one site; 4=Two or more sites of ulceration and/or inflammation; 5=Two or more major sites of ulceration and inflammation or one major site of ulceration and inflammation extending more than 1 cm along the length of the colon. […]
Compound,"% RBC parasitemia (Plasmodium berghei; Day 4, high dose 60 mg/kg i.v. days 0-3, saline control 16%) [%]","% RBC parasitemia (Plasmodium berghei; Day 4, low dose 30 mg/kg i.v. days 0-3, saline control 16%) [%]","% RBC parasitemia (Plasmodium berghei; Day 11, high dose 60 mg/kg i.v. days 0-3, saline control 36%) [%]","% RBC parasitemia (Plasmodium berghei; Day 11, low dose 30 mg/kg i.v. days 0-3, saline control 36%) [%]","half-life ([1]; rats s.c., read-out: plasma elimination half-life, first phase (converted)) [h]","half-life ([1]; rats s.c., read-out: plasma elimination half-life, second phase (converted)) [h]",accumulation in organs ([1]; rats s.c.),route of excretion ([1]; rats s.c.),time of maximum concentration in the plasma ([1]; rats s.c.),"maximum concentration in the plasma ([1]; rats s.c., at one hour post administration)","drug left the injection site ([1]; rats, subcutaneous, formulation of example 1, within 24 hours)",survival of infected mice (P. berghei; BrEA 100 mg/kg I.V. daily),survival of infected mice (P. berghei; BrEA 100 mg/kg S.C. daily),histopathology: inflammation / lesion frequency and severity versus controls (Sprague Dawley rats)
"C[C@]12CC[C@H](O)C[C@@H]1CC[C@@H]1[C@@H]2CC[C@]2(C)C(=O)[C@H](Br)C[C@@H]12 [BrEA, 16α-bromo-3β-hydroxy-5α-androstane-17-one]",7,9,11,12,~12,~72,did not accumulate to a significant extent in any major organ,excreted primarily in the feces,one,about 0.2 % of the injected dose,Approximately 90%,No deaths occurred in the group receiving I.V. BrEA at day 30,dead by Day 11,appeared to be similar
"C[C@]12CC[C@H](O)CC1=CC[C@@H]1[C@@H]2CC[C@]2(C)C(=O)CC[C@@H]12 [DHEA, dehydroepiandrosterone, reference compound]",–,–,–,–,–,–,–,–,–,–,–,–,–,appeared to be similar
